# In patent US10233184B2, “7-substituted sulfonimidoylpurinone compounds and derivatives for the treatment and prophylaxis of virus infection” (Hoffmann-La Roche Inc., priority 2016, dated 2019):
# What was measured:
# human TLR7 = biological target: T1, human TLR7 (Homo sapiens, UniProt Q9NYK1); assay: HEK293-Blue-hTLR-7 cells assay (SEAP reporter); assay type: cell-based; details: for Ratio (EC50(prodrug)/EC50(active form)): EC50 of prodrug over EC50 of corresponding active form; for EC50: HEK293-Blue-hTLR-7 cells, SEAP reporter, 20 hrs, prodrug, read-out: HEK293-hTLR-7 EC50 (Prodrug)
# T1 sequence (Q9NYK1 27-1049): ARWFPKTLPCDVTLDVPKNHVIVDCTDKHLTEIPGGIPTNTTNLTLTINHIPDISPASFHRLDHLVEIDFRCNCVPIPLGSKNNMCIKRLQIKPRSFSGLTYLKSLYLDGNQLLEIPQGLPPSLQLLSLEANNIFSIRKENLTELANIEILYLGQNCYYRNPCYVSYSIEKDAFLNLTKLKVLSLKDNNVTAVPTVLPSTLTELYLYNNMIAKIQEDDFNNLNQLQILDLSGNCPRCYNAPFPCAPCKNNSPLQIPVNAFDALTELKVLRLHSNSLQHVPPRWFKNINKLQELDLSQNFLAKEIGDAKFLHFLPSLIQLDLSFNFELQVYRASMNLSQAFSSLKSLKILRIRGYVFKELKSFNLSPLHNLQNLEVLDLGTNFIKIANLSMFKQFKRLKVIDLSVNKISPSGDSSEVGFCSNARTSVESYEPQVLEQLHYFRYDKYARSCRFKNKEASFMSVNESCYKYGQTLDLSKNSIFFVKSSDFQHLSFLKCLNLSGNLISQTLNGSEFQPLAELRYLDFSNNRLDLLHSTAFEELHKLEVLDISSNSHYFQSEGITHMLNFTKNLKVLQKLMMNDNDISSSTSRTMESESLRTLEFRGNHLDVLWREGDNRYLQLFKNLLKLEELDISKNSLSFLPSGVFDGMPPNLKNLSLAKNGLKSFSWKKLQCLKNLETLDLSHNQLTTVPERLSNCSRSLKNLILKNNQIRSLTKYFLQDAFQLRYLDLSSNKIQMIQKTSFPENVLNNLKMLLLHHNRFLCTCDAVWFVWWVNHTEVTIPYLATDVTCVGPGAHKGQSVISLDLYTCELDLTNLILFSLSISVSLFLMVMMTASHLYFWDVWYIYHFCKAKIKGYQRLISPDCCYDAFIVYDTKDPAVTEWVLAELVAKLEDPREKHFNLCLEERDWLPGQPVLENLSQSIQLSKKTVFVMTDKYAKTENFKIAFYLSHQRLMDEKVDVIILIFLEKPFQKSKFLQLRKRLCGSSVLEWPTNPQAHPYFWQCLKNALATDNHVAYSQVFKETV
# Source text: HEK293-Blue-hTLR-7 Cells Assay:
# A stable HEK293-Blue-hTLR-7 cell line was purchased from InvivoGen (Cat.#: hkb-htlr7, San Diego, Calif., USA). These cells were designed for studying the stimulation of human TLR7 by monitoring the activation of NF-κB. A SEAP (secreted embryonic alkaline phosphatase) reporter gene was placed under the control of the IFN-β minimal promoter fused to five NF-κB and AP-1-binding sites. The SEAP was induced by activating NF-κB and AP-1 via stimulating HEK-Blue hTLR7 cells with TLR7 ligands. Therefore the reporter expression was regulated by the NF-κB promoter upon stimulation of human TLR7 for 20 hrs. The cell culture supernatant SEAP reporter activity was determined using QUANTI-Blue™ kit (Cat.#: rep-qbl, Invivogen, San Diego, Calif., USA) at a wavelength of 640 nm, a detection medium that turns purple or blue in the presence of alkaline phosphatase.
# HEK293-Blue-hTLR7 cells were incubated at a density of 250,000˜450,000 cells/mL in a volume of 180 μL in a 96-well plate in Dulbecco's Modified Eagle's medium (DMEM) containing 4.5 g/L glucose, 50 U/mL penicillin, […], […], 2 mM L-glutamine, 10% (V/V) heat-inactivated fetal bovine serum for 24 hrs. Then the HEK293-Blue-hTLR-7 cells were incubated with addition of 20 μL test compound in a serial dilution in the presence of final DMSO at 1% and perform incubation under 37° C. in a CO2 incubator for 20 hrs. Then 20 μL of the supernatant from each well was incubated with 180 μL Quanti-blue substrate solution at 37° C. for 2 hrs and the absorbance was read at 620˜655 nm using a spectrophotometer. The signalling pathway that TLR7 activation leads to downstream NF-κB activation has been widely accepted, and therefore similar reporter assay was also widely used for evaluating TLR7 agonist (Tsuneyasu Kaisho and Takashi Tanaka, Trends in Immunology, Volume 29, Issue 7, July 2008, […]; Hiroaki Hemmi et al, Nature Immunology 3, 196-200 (2002)).
# The Compounds and Examples of the present invention were tested in HEK293-hTLR-7 assay for their TLR7 agonism activity as described herein and results are listed in Table 1. […] The calculated ratio of EC50(prodrug)/EC50(active form) were within the range from 32 to about 7600.
# LYSA solubility study = assay type: physicochemical; details: for solubility thermodynamic: phosphate buffer, pH 6.5, aqueous buffer, thermodynamic from solid, 0.05M phosphate buffer pH 6.5, read-out: LYSA of Prodrugs; for LYSA of Prodrugs: aqueous solubility, 0.05M phosphate buffer pH 6.5
# Procedure: LYSA study is used to determine the aqueous solubility of tested compounds. Samples were prepared in duplicate from 10 mM DMSO stock solution. After evaporation of DMSO with a centrifugal vacuum evaporator, the compounds were dissolved in 0.05M phosphate buffer (pH 6.5), stirred for one hour and shaken for two hours. After one night, the solutions were filtered using a microtiter filter plate. Then the filtrate and its 1/10 dilution were analyzed by HPLC-UV. […] The results were in μg/mL. In case the percentage of sample measured in solution after evaporation divided by the calculated maximum of sample amount was bigger than 80%, the solubility was reported as bigger than this value.
# [1] = Single dose PK study in male Wister-Han rats; assay type: in vivo; details: male, Wister-Han, rat, plasma, po, 5 mg/kg, 5 mg/kg oral dosing of active form
# Procedure: The single dose PK in Male Wister-Han Rats was performed to assess pharmacokinetic properties of tested compounds. Two groups of animals were dosed via Gavage (POE) of the respective compound. […] Blood samples were placed into tubes containing EDTA-K2 anticoagulant and centrifuged at 5000 rpm for 6 min at 4° C. to separate plasma from the samples. After centrifugation, the resulting plasma was transferred to clean tubes for bioanalysis of both prodrug and active form on LC/MS/MS. In the groups that prodrug were dosed, the concentration of prodrugs in the plasma samples was under the detection limit. The “tested compound” in Table 8 was used as the internal standard for testing the metabolite (active form) of “dose compound” in vivo. The pharmacokinetic parameters were calculated using non-compartmental module of WinNonlin® Professional 6.2. The peak concentration (Cmax) was recorded directly from experimental observations. The area under the plasma concentration-time curve (AUC0-t) was calculated using the linear trapezoidal rule up to the last detectable concentration. Cmax and AUC0-last are two critical PK parameters related to the in vivo efficacy of the tested compound. Compounds with higher Cmax and AUC0-last will lead to the better in vivo efficacy.
Structure (SMILES),Ratio (EC50(prodrug)/EC50(active form)) (human TLR7),EC50 (human TLR7) [µM],solubility thermodynamic (LYSA solubility study) [µg/mL],further results
"CCCS(=N)(=O)c1nc(N)c2c(n1)n(Cc1ccccc1)c(=O)n2C(=O)N1CCC(N2CCCCC2)CC1 (stereo not drawn) [Example 4, 6-Amino-9-benzyl-7-[4-(1-piperidyl)piperidine-1-carbonyl]-2-(propylsulfonimidoyl)purin-8-one]",353.8,23,695,–
"CCN(C)C(=O)n1c(=O)n(Cc2ccc(F)cc2)c2nc(S(=N)(=O)CC)nc(N)c21 (single isomer, unassigned) [Example 46-A]",–,45.5,–,LYSA of Prodrugs (LYSA solubility study): 205 µg/mL
"CCCN(C)C(=O)n1c(=O)n(Cc2ccc(F)cc2)c2nc(S(=N)(=O)CC)nc(N)c21 (single isomer, unassigned) [Example 45-A]",–,153,> 560,–
"CCCN(C)C(=O)n1c(=O)n(Cc2ccc(C)cc2)c2nc([S@@](=N)(=O)CCC)nc(N)c21 (stereo in doubt) [Example 36-B, 6-amino-N-methyl-8-oxo-N-propyl-2[S(R)-propylsulfonimidoyl]-9-(p-tolylmethyl)purine-7-carboxamide]",–,–,–,LYSA of Prodrugs (LYSA solubility study): 209 µg/mL
"CCCN(C)C(=O)n1c(=O)n(Cc2ccc(C)cc2)c2nc([S@@](=N)(=O)CC)nc(N)c21 (single isomer, unassigned) [Example 43-B]",2240,78.4,170,–
"CCCN(C)C(=O)n1c(=O)n(Cc2ccc(F)cc2)c2nc(S(=N)(=O)CC)nc(N)c21 (stereo not drawn) [Example 45, 6-amino-2-(ethylsulfonimidoyl)-9-[(4-fluorophenyl)methyl]-N-methyl-8-oxo-N-propyl-purine-7-carboxamide]",–,–,172,–
"CCN(C)C(=O)n1c(=O)n(Cc2ccc(Br)cc2)c2nc(S(=N)(=O)CC)nc(N)c21 (single isomer, unassigned) [Example 48-B]",–,20.8,–,LYSA of Prodrugs (LYSA solubility study): 275 µg/mL
"CCCS(=N)(=O)c1nc(N)c2c(n1)n(Cc1ccccc1)c(=O)n2C(=O)N1CCN(C)CC1 (stereo not drawn) [Example 11, 6-Amino-9-benzyl-7-(4-methylpiperazine-1-carbonyl)-2-(propylsulfonimidoyl)purin-8-one]",86.2,5.6,> 618,–
"CCS(=O)(=O)c1nc(N)c2[nH]c(=O)n(Cc3ccc(Cl)cc3)c2n1 [Example S-2, reference compound]",–,–,–,AUC(0-t) [1]: 0.748 µM·h; Cmax [1]: 52.7 nM; concentration at 0.25 h ([1]; 0.25 h): 9.49 nM; concentration at 0.5 h ([1]; 0.5 h): 16.7 nM; concentration at 1 h ([1]; 1 h): 19.3 nM; concentration at 2 h ([1]; 2 h): 24.9 nM; concentration at 4 h ([1]; 4 h): 47.5 nM; concentration at 8 h ([1]; 8 h): 52.7 nM; concentration at 24 h ([1]; 24 h): 4.9 nM

# Continued, in another order:
Ratio (EC50(prodrug)/EC50(active form)) (human TLR7),EC50 (human TLR7) [µM],solubility thermodynamic (LYSA solubility study) [µg/mL],Structure (SMILES),further results
493.8,32.1,205,"CCCS(=N)(=O)c1nc(N)c2c(n1)n(Cc1ccccc1)c(=O)n2C(=O)N(C)CCC(=O)OC(C)(C)C (stereo not drawn) [Example 16, tert-Butyl 3-[[6-amino-9-benzyl-8-oxo-2-(propylsulfonimidoyl)purine-7-carbonyl]-methyl-amino]propanoate]",–
43.0,3.7,> 600,"CCCS(=N)(=O)c1nc(N)c2c(n1)n(Cc1ccccc1)c(=O)n2C(=O)N(C)CCOC (single isomer, unassigned) [Example 2-A]",–
634.3,42.5,315,"CCCN(C)C(=O)n1c(=O)n(Cc2ccccc2)c2nc(S(=N)(=O)CCC)nc(N)c21 (single isomer, unassigned) [Example 1-A]",–
306.2,19.9,615,"CCCN(CCOC)C(=O)n1c(=O)n(Cc2ccccc2)c2nc(S(=N)(=O)CCC)nc(N)c21 (stereo not drawn) [Example 7, 6-Amino-9-benzyl-N-(2-methoxyethyl)-8-oxo-N-propyl-2-(propylsulfonimidoyl)purine-7-carboxamide]",–
346.2,22.5,125,"CCCS(=N)(=O)c1nc(N)c2c(n1)n(Cc1ccccc1)c(=O)n2C(=O)N(C)CCOC(=O)N(CC)CC (stereo not drawn) [Example 32, 2-[[6-Amino-9-benzyl-8-oxo-2-(propylsulfonimidoyl)purine-7-carbonyl]-methyl-amino]ethyl N,N-diethylcarbamate]",–
1266.2,82.3,140,"CCCCN(CC)C(=O)n1c(=O)n(Cc2ccccc2)c2nc(S(=N)(=O)CCC)nc(N)c21 (stereo not drawn) [Example 6, 6-Amino-9-benzyl-N-butyl-N-ethyl-8-oxo-2-(propylsulfonimidoyl)purine-7-carboxamide]",–
–,–,190,"CCCS(=N)(=O)c1nc(N)c2c(n1)n(Cc1ccccc1)c(=O)n2C(=O)N(C)[C@@H](C)C(=O)OCC (stereo partly drawn) [Example 17, Ethyl(2S)-2-[[6-amino-9-benzyl-8-oxo-2-(propylsulfonimidoyl)purine-7-carbonyl]-methyl-amino]propanoate]",–
